Measurements as given in US12258331B2, “Pyrimidine derivative and preparation process and use thereof” (Guangdong Lewwin Pharmaceutical Research Institute Co., Ltd., priority 2018, dated 2025).

What was measured:
[1] = Pharmacokinetic properties after intravenous injection and intragastric administration; format: in vivo, mice
Procedure: Shanghai Medicilon Bio-pharmaceutical Co., LTD was commissioned to research pharmacokinetic properties of the novel pyrimidine derivatives (R)-14, (R)-5b, and Tepotinib in mice. The specific processes are: An appropriate amount of the compounds (R)-14, (R)-5b and Tepotinib were accurately weighed and dissolved in a solution containing 2% Solutol and 98% 100 mM sodium acetate to obtain a clear dosing solution at a concentration of 2 mg/mL for intravenous administration. An appropriate amount of the compounds (R)-14, (R)-5b were accurately weighed and dissolved in 5% Solutol and 95% saline to obtain a clear dosing solution at a concentration of 5 mg/mL. An appropriate amount of Tepotinib was accurately weighed and dissolved in 5% Solutol, 5% DMSO and 90% saline, for oral administration and injection. Blood was collected from the test […] via jugular vein puncture, about 0.3 mL for per sample, and using heparin sodium as the anticoagulant. The time points for blood sampling were as below (including intravenous injection and oral administration): before administration, 5 min, 15 min, 30 min, 1 h, 2 h, 4 h, 8 h and 24 h post administration. After collection, blood samples were placed on ice, and plasma was separated by centrifugation within 30 minutes (centrifugation conditions: 8000 rpm, 6 minutes, 2-8° C.). The collected plasma was stored at −80° C. before analysis. Plasma samples were all analyzed qualitatively and quantitatively by LC-MS/MS. The dosage and ways for administration were intravenous injection (IV, 2 mg/kg) and intragastric administration (PO, 5 mg/kg) respectively, with the pharmacokinetic data shown in Table 3.

[2] = Metabolic stability in rat liver microsomes; conditions: 37° C.
Procedure: Firstly, a SD rat (200-300 g) was fasted for 12 hours, and then infused rapidly with normal saline. Liver was taken out from the rat, from which liver microsomes were extracted at 0-4° C., ready for use after calibrating the concentration of liver microsomes. At 37° C., liver microsomes were incubated in combination with a certain concentration of compounds and auxiliary reagents for a period of time. The reaction was then quenched with acetonitrile.

[3] = Sprague-Dawley, mouse, in vivo, iv, 2 mg/kg
[4] = Sprague-Dawley, mouse, in vivo, po, 5 mg/kg

Compound: C[C@H](c1cccc(-c2ncc(OCC3CCN(C)CC3)cn2)c1)n1nc(-c2cccc(C#N)c2)ccc1=O [(R)-5b]
- AUC0-∞ [1, 3]: 2143.91 ng·h/mL
- CL [1, 3]: 15.548 mL/min/kg
- T1/2 [1, 3]: 4.23 h
- AUC0-∞ [1, 4]: 4580.23 ng·h/mL

Compound: [2H]C([2H])([2H])C([2H])(c1cccc(-c2ncc(OCC3CCN(C)CC3)cn2)c1)n1nc(-c2cccc(C#N)c2)ccc1=O (stereo in doubt) [(R)-14]
- AUC0-∞ [1, 3]: 2441.64 ng·h/mL
- CL [1, 3]: 13.652 mL/min/kg
- T1/2 [1, 3]: 4.48 h
- AUC0-∞ [1, 4]: 6309.37 ng·h/mL
- Tmax [1, 4]: 4 h

Compound: CN1CCC(COc2cnc(-c3cccc(Cn4nc(-c5cccc(C#N)c5)ccc4=O)c3)nc2)CC1 [Tepotinib]
- T1/2 (metabolic half-life in liver microsomes) [2]: 0.345 h
- AUC0-∞ ([1]; IV 2 mg/kg): 562.74 ng·h/mL
- CL ([1]; IV 2 mg/kg): 59.2338 mL/min/kg
- T1/2 ([1]; IV 2 mg/kg): 1.79 h
- Vz ([1]; IV 2 mg/kg): 9.17868 L/kg
- AUC0-∞ ([1]; PO 5 mg/kg): 981.69 ng·h/mL
- Cmax ([1]; PO 5 mg/kg): 211.23 ng/mL
- Tmax ([1]; PO 5 mg/kg): 1 h
- F % (bioavailability) ([1]; PO 5 mg/kg vs IV 2 mg/kg): 67.77%
